Here are results for three molecules from patent publication US20260083725A1, “SIGMARI LIGAND FOR THE TREATMENT OF PANCREATIC CANCER” (INSTITUT NATIONAL DE LA SANTÉ ET DE LA RECHERCHE MÉDICALE, priority 2022, published 2026).

One assay relates to SK2 channel. The assay is described as follows: Whole cell patch clamp recording of SK2 current in pancreatic cancer cells. Type of assay: cell-based, human. The note with it: for CAF-CM-induced SK2 current: PANC-1 cells incubated with CAF-CM plus inhibitor or antibody. On the procedure:
Electrophysiological recordings in HEK293-T, PANC-1 and MiaPaCa-2 cells were performed in the whole cell configuration of the patch clamp technique at room temperature. Cells were bathed in a solution containing: 5 mM KCl, 145 mM NaCl, 1 mM MgCl2, 2 mM CaCl2, and 10 mM Hepes (pH adjusted to 7.4 with HCl, 300 mosm/L). Soft glass patch electrodes (Brand, Wertheim, Germany) were made on a horizontal pipette puller (P-97, Sutter Instrument Co., Novato, CA) to achieve a final resistance ranging from 3 to 5 MΩ. The internal solution was: 145 mM KCl, 1 mM MgCl2, 0.87 mM CaCl2, 1 mM EGTA, 10 mM Hepes, 1 mM ATP (pH adjusted to 7.2 with KOH, 308 mosm/L, pCa 6). Recordings were performed at room temperature in the voltage clamp mode using an PC-controlled EPC 9 patch-clamp amplifier (HEKA, Lambrecht/Pfalz, Germany). Currents were acquired and analyzed with Pulse and Pulsefit software (HEKA). Signal were filtered at 10 kHz and digitalized at 20 kHz. Currents were elicited by voltage ramps protocols (from −120 to +60 mV). Current density was measured at 0 mV. For the electrophysiological study of the SK2 mutations, HEK293-T were transfected with the different constructions and the HA-myr-AKT using calcium phosphate and recorded 24 h after transfection.
(In patch-clamp work, channel activity is measured electrically.)

A further assay concerns SK2/AKT interaction. The assay is described as follows: In situ proximity ligation assay of SK2/AKT interaction in PANC-1 cells. The class given is cell-based, human. The note with it: PANC-1 Sh RD cells, overnight CAF-CM + 1(S) ligand 1 μM; FIG. 1B. The protocol:
The DuoLink in situ Proximity Ligation Assay (PLA) (Olink Bioscience, Uppsala, Sweden) was used to detect the interaction between SK2 and different candidates' partner (C-myc Sig-1R, EGFR, AKT, β1 integrin). PANC-1 cells expressing a stable Sh R D, Sh Sig-1R, or Sh SK2 were seeded on poly-Lysine (40 μg/mL) coated microscope slides. Cells were fixed with PFA 4% and permeabilized with triton X100 (0.05%). Cells were immunolabeled with primary antibodies: anti SK2 (1:100) and anti C-myc, (1:100) or anti EGFR (1:100), or anti AKT (1:100), or anti β1 integrin (1:100) for 1 h at 37° C. The secondary antibodies with attached PLA probes were supplied in the Duolink kit. Cellular PLA images were captured using an inverted Zeiss Axio Observer Z1 microscope (Zeiss, Jena, Germany). 6 to 10 fields have been imaged and quantified per conditions.

The next assay deals with Panc-1 cells. The assay can be described thus: Proliferation and viability assays on Panc-1 cells. Type of assay: cell-based. Conditions: control Panc-1 cells or cells silenced for Sig1R or SK2.
The next assay deals with KICpdx1 mice. The assay is described as follows: Endogenous PDAC mice model (KICpdx1 mice) treated with 1(S) ligand. Type of assay: in vivo, mouse. Conditions: for median survival: once a week, non-treated 67 days. On the procedure: Pdx1-Cre, Ink4afl/fl LSL-KrasG12D (KICpdx1) mice were obtained by crossing of the following strains: Pdx1-Cre, Ink4afl/fl, and LSL-KrasG12D mice provided by D. Melton (Harvard Stem Cell Institute, Cambridge, Massachusetts, USA), R. Depinho (Dana-Farber Cancer Institute, Boston, Massachusetts, USA), and T. Jacks (David H. Koch Institute for Integrative Cancer Research, Cambridge, Massachusetts, USA), respectively. PDAC-bearing 5- and 8-week-old mice were treated once a week with vehicle or 1(S) ligand (0.1 mg/injection/mouse) until experimental endpoint mice reaching sacrificing time or mice reaching physiological endpoints (cachexia criteria, limited movement, drinking or feeding of the mice). No exclusion has to be reported in all experiments as no mice reached a criteria of exclusion such as a fight-related wound or the development of ear inflammation.. To study final tumor volume, mice were euthanized at 9 weeks and tumors were weighted and fixed in 4% (wt/vol) formaldehyde for immunochemistry. For survival analyses, mice were euthanized when they developed ethical clinical end points defined by our institutional guidelines and European animal protection law. For all experiments, sample size was predicted following a Mann-Whitney statistical approach involving power calculation of 0.8 with a FDR of 0.05. A minimum number of 7 mice per group was predicted as able to reach significance. Bonferroni post-hoc test was used for multiples test comparison (two variance with time and/or treatment). Experimental technicians were proceeding with injections while personnel related to mice follow-up worked in a blinded approach. All animal care and experimental procedures were performed in agreement with the Animal Ethics Committee of Marseille then the French ministry of research and innovation under the reference Apafis#16998-2018100814458519.

[1] abbreviates: KICpdx1 mice treated from 5 weeks, end-point at 9 weeks, versus untreated.

On to `CCN(CC)CCCCN1c2ccccc2Oc2ccc(Cl)cc21` [DEBC, reference compound], for which the “CAF-CM-induced SK2 current” value in the assay on SK2 channel is given as “suppressed”.

Turning to `CN(CCCN1C(=O)[C@@H]2Cc3ccccc3CN2C1=O)Cc1ccccc1` [Compound 1(S)], in the assay with SK2 channel (PANC-1 cells exposed overnight to CAF-CM + 1(S) ligand 1 μM, patch-clamp, FIG. 1A), the “CAF-CM mediated activation of SK2 (ISK2 current)” value is “abolished”. Besides, in the assay with SK2/AKT interaction, the “association of SK2 and AKT (PLA, interactions per cell)” value is listed as “prevented”. Also, the “effect on proliferation and viability” value in the assay on Panc-1 cells is “does not exhibit any effect”. Moreover, the tumor progression entry with KICpdx1 mice (KICpdx1 mice treated from 5 weeks old, before the onset of PDAC) is “significantly delayed”. Further, the median survival in the assay with KICpdx1 mice (KICpdx1 mice treated from 5 weeks old, 0.1 mg/injection/mouse, FIG. 1D) was 84 days. Also, the “histological examination of pancreas” value with KICpdx1 mice (KICpdx1 mice treated from 5 weeks, end-point at 9 weeks) was “almost lack of malignant lesions”. In the assay on KICpdx1 mice (setting [1]), the “ECM density (trichrome labelling, desmoplasia)” value is reported as “lower” and the “number of EMT-reprogramming epithelial cells (Pan-CK/αSMA co-staining)” value is “lower”. Also, the “reduction of pancreas weight compared to non-treated” value in the assay on KICpdx1 mice (KICpdx1 mice treated from 5 weeks, end-point at 9 weeks, FIG. 1F) is recorded as 69%. The molecule further returned a pancreas weight in the assay with KICpdx1 mice (KICpdx1 mice treated from 5 weeks, end-point at 9 weeks, non-treated 1.44 g (±0.42), FIG. 1F) of 0.45 g. Moreover, the median survival with KICpdx1 mice (KICpdx1 mice treated from 8 weeks of age (PDAC already developed), FIG. 1H) is recorded as 77 days. Further, the metastasis onset entry in the assay with KICpdx1 mice (mouse models of PDAC treated with 1(S)) was “reduced”.

As for `C#Cc1cccc(Nc2ncnc3cc(OCCOC)c(OCCOC)cc23)c1` [Erlotinib, reference compound], the “CAF-CM-induced SK2 current” value with SK2 channel was “suppressed”.
